Patent US12391658B2, “Sulfoxide and sulfone glucokinase activators and methods of use thereof” (vTv Therapeutics LLC, priority 2020, dated 2025)
≈ marks a conversion by molar mass, not a printed value. Where two headings read alike, the source gives them in different places. Marks after values point to notes of the source that are not given here.

Columns and labels:
Aqueous solubility = assay type: physicochemical; conditions: for aqueous solubility compared with SM-1: across a range of pH's
Description: The aqueous solubility of Sulfoxide-1, Sufloxide-1A, Sulfoxide-1B, Sulfone-1, and SM-1 was investigated.

Caco-2 monolayers = assay: Caco-2 permeability; assay type: in vitro ADME, human; conditions: tested concentrations of 12.5 μg/mL and 50 μg/mL
Description: Differentiated Caco-2 cells form a polarized epithelial cell monolayer that provides a physical and biochemical barrier to the passage of ions and small molecules. Using commercially available kits, the Caco-2 monolayer may be used as an in vitro model of the human small intestinal mucosa to predict the intestinal permeability or absorption of orally administered drugs. Researchers have shown a correlation for some molecules between the in vitro apparent permeability (Papp) across Caco-2 monolayers and the in vivo fraction absorbed.
The permeability of a compound may be evaluated in a bi-directional transport experiments at multiple concentrations (such as 1, 2, 5, 20, 100 and 200 μg/mL) using Caco-2 monolayers. The apparent permeability coefficients (Papp) for a compound may be calculated and compared with the permeability of a high permeability marker (such as labetalol) and a low permeability marker (such as mannitol).
(§1) The Caco-2 permeability, P-gp substrate and inhibitory activity, and BCRP substrate and inhibitory activity of Sulfoxide-1, Sufloxide-1A, Sulfoxide-1B, Sulfone-1, and SM-1 was investigated using procedures similar to those described above.
(§2) As summarized in Table 2 below, except for Sulfoxide-1B, all of the tested compounds had low Caco-2 cell permeability and were weak efflux transporter substrates at the tested concentrations of 12.5 μg/mL and 50 μg/mL.

efflux transporter = assay: Efflux substrate activity (monolayer efflux assay); assay type: in vitro ADME; conditions: tested concentrations of 12.5 μg/mL and 50 μg/mL
Protocol: (§3) The cell-based bidirectional permeability assay (or monolayer efflux assay) is a method for determining transporter inhibition (such as P-glycoprotein (P-gp) or Breast Cancer Resistance Protein (BCRP)) potential of test compounds in drug discovery. The experimental protocol for this assay is well established and typically, bidirectional permeability of a known substrate is assessed alone and in the presence of a single concentration of test compound to estimate the inhibition potential.
(§4) The monolayer efflux assay, where the ratio of basolateral-to-apical (B→A) permeability versus apical-to-basolateral (A→B) permeability is compared with a value of 1, is regarded as the standard for identifying substrates. Due to concentration-dependent inhibition of active efflux on the apical side by inhibitors, the B→A permeability decreases whilst A→B permeability increases with ratio approaching unity as the dose of inhibitor increases. The affinity of inhibitor to efflux protein(s) may be studied by calculating the active flux that can be obtained from the B→A fluxes in the absence and presence of efflux inhibitors. Inhibition potency, determined by inhibitor concentration-dependent transport assay, is usually represented as an IC50 value, the concentration that gives 50% of maximum inhibition of a known P-gp or BCRP substrate. Specificity of the inhibitor to P-gp or BCRP may be determined by competitive assays, which involve a transport assay of a known substrate in the presence of known inhibitors (specific to various transporters) with and without test compounds. Thus, appropriate design of competitive inhibition assays using known selected substrates and modulators will show the specificity of an inhibitor towards an efflux pump.
The potential for P-glycoprotein (P-gp) substrate inhibitory activity of a test compound may be evaluated by determining a test compound's Caco-2 permeability in the presence or absence of a P-gp inhibitor such as Cyclosporin A (CsA) or verapamil.
(§5) The substrate and inhibitor potential of a test compound for the apical efflux transported breast cancer resistance protein (BCRP) may also be evaluated using a bidirectional permeability assessment where the controls are Ko143 (a potent inhibitor of BCRP) and E3S (estrone-3-sulphate, a substrate for BCRP) and across a range of test compound concentrations such as 1, 5, 20, 100, and 200 μg/mL or 1.6, 3.2, 16, 32, 160 and 320 μg/mL).
as §1, §2

P-glycoprotein (P-gp) = biological target: T1, P-glycoprotein (P-gp) (Homo sapiens, UniProt P08183); assay: P-gp transporter inhibition; assay type: in vitro ADME
T1 construct: the P-gp transporter expressed on Caco-2 cell monolayers; endogenous in cells; host or cells: Caco-2
Protocol: as §3, §4
The potential inhibitory activity of a compound on the P-gp transporter expressed on Caco-2 cell monolayers may be investigated in experiments monitoring the bi-directional transport of a test compound in the presence or absence of a P-gp inhibitor such as Cyclosporin A (CsA) or verapamil.
The potential inhibitory activity of a compound on the P-gp transporter expressed on Caco-2 cell monolayers may also be investigated in experiments monitoring the bi-directional transport of [^3H]-digoxin in the presence of increasing concentrations of a test compound (such as 1, 5, 20, 100, and 200 μg/mL or 1.6, 3.2, 16, 32, 160 and 320 μg/mL). If the efflux of [^3H]-digoxin is not inhibited by a test compound, the test compound is likely a poor inhibitor of P-gp. If the efflux of [^3H]-digoxin is inhibited by a test compound, the IC50 value may be calculated using a non-linear regression of permeability data collected at various concentrations.
as §1

[1] = biological target: T2, breast cancer resistance protein (BCRP) (Homo sapiens, UniProt Q9UNQ0); assay: BCRP transporter inhibition; assay type: in vitro ADME
T2 construct: endogenous in cells
T2 sequence (Q9UNQ0 1-655): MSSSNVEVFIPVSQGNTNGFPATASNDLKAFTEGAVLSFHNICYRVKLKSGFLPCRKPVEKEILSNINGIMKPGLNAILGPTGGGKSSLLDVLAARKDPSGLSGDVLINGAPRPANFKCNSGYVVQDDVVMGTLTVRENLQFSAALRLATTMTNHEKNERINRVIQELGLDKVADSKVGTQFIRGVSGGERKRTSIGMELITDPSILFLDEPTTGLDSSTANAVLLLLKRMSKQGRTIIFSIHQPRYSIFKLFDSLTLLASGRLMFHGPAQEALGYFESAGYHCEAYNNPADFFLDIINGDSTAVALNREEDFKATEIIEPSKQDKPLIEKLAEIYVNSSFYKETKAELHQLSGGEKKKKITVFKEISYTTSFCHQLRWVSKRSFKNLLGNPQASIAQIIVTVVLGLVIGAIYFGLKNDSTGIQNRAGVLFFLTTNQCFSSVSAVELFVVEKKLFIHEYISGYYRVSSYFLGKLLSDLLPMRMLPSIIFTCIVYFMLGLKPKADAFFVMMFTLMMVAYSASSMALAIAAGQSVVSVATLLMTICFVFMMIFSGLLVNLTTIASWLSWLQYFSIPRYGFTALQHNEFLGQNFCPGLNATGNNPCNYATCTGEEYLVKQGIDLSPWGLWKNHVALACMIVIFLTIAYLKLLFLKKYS
Protocol: as §3, §4, §5, §1

[2] = acetate buffer, pH 4.5, aqueous buffer, Acetate Buffer pH 4.5, read-out: Solubility
[3] = phosphate buffer, pH 6.5, aqueous buffer, Phosphate Buffer pH 6.5, read-out: Solubility
[4] = 0.1N HCl, simulated gastric fluid, 0.1N HCl, read-out: Solubility

T1 sequence (P08183 whole entry): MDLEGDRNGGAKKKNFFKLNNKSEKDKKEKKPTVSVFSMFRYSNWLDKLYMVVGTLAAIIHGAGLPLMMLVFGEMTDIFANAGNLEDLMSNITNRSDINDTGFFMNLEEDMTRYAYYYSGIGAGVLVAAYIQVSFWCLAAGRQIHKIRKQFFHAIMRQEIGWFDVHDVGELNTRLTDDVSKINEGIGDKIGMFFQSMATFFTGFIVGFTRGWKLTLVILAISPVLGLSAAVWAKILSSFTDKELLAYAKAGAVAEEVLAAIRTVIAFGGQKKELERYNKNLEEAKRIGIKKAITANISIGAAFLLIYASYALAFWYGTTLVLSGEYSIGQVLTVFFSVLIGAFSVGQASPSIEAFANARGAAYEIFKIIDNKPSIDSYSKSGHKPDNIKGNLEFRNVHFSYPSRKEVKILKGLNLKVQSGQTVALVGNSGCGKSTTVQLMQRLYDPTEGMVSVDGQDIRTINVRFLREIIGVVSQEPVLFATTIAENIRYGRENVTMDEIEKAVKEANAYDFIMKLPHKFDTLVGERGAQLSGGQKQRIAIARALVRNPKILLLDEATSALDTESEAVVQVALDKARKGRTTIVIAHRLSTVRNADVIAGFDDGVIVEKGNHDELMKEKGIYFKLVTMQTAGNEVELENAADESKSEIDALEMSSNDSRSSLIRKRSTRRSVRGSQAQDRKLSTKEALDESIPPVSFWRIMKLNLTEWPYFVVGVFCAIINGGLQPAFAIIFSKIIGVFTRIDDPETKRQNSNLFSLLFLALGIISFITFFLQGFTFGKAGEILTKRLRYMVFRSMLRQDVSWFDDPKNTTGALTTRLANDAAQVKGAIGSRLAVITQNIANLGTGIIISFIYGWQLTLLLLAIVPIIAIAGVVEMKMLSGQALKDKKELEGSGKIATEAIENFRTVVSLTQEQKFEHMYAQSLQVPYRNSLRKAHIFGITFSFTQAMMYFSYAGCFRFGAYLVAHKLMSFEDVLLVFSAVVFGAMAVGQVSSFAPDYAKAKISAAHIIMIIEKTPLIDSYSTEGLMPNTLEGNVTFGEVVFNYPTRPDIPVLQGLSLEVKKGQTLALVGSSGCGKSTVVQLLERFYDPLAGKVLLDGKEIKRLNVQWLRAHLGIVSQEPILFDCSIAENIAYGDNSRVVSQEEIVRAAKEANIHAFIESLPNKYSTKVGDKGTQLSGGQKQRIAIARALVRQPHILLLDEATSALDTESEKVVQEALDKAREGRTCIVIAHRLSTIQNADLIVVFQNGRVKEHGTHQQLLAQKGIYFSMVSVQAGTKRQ

CCCO[C@H]1CC[C@H](N(C(=O)Nc2ncc(SCC(=O)O)s2)C2CCCCC2)CC1 [SM-1, {2-[3-cyclohexyl-3-(trans-4-propoxy-cyclohexyl)-ureido]-thiazol-5-ylsulfanyl}-acetic acid, reference compound]
solubility (Aqueous solubility; [2]): 0.44 µg/mL (≈ 0.000966 mM) | solubility (Aqueous solubility; [3]): 21 µg/mL (≈ 0.0461 mM) | Caco-2 Permeability (Caco-2 monolayers): Low | Efflux Transporter Substrate (efflux transporter): Yes | IC50 (P-glycoprotein (P-gp)): 115 µM | BCRP inhibitory activity, rank among the tested compounds [1]: strongest BCRP inhibitor | IC50 [1]: 19.5 µM

CCCO[C@H]1CC[C@H](N(C(=O)Nc2ncc(S(=O)(=O)CC(=O)O)s2)C2CCCCC2)CC1 [Sulfone-1, {2-[3-Cyclohexyl-3-(trans-4-propoxy-cyclohexyl)-ureido]-thiazol-5-ylsulfonyl}-acetic acid]
solubility (Aqueous solubility; [4]): 10 µg/mL (≈ 0.0205 mM) | solubility (Aqueous solubility; [2]): 2070 µg/mL (≈ 4.24 mM) | aqueous solubility compared with SM-1 (Aqueous solubility): much greater aqueous solubility than SM-1 | solubility (Aqueous solubility; [3]): 2100 µg/mL (≈ 4.31 mM) | Caco-2 Permeability (Caco-2 monolayers): Low | Efflux Transporter Substrate (efflux transporter): Yes | IC50 (P-glycoprotein (P-gp)): ~205 µM | BCRP inhibitory activity, rank among the tested compounds [1]: weakest BCRP inhibitors | IC50 [1]: > 205 µM

CCCO[C@H]1CC[C@H](N(C(=O)Nc2ncc([S+]([O-])CC(=O)O)s2)C2CCCCC2)CC1 (single isomer, unassigned) [Sulfoxide-1B, {2-[3-Cyclohexyl-3-(trans-4-propoxy-cyclohexyl)-ureido]-thiazol-5-ylsulfinyl}-acetic acid]
solubility (Aqueous solubility; 0.1N HCl): 120 µg/mL (≈ 0.254 mM) | solubility (Aqueous solubility; Acetate Buffer pH 4.5): 1850 µg/mL (≈ 3.92 mM) | solubility (Aqueous solubility; Phosphate Buffer pH 6.5): 1990* μg/mL | aqueous solubility compared with SM-1 (Aqueous solubility): much greater aqueous solubility than SM-1 | Caco-2 Permeability (Caco-2 monolayers): Moderate | Efflux Transporter Substrate (efflux transporter): not an efflux transporter substrate and No | IC50 (P-glycoprotein (P-gp)): > 212 µM | P-gp inhibitory activity, rank among the tested compounds (P-glycoprotein (P-gp)): weakest P-gp inhibitor | BCRP inhibitory activity, rank among the tested compounds [1]: weakest BCRP inhibitors | IC50 [1]: > 212 µM

CCCO[C@H]1CC[C@H](N(C(=O)Nc2ncc([S+]([O-])CC(=O)O)s2)C2CCCCC2)CC1 (single isomer, unassigned) [Sulfoxide-1A, {2-[3-Cyclohexyl-3-(trans-4-propoxy-cyclohexyl)-ureido]-thiazol-5-ylsulfinyl}-acetic acid]
solubility (Aqueous solubility; [4]): 120 µg/mL (≈ 0.254 mM) | solubility (Aqueous solubility; [2]): 1630 µg/mL (≈ 3.46 mM) | aqueous solubility compared with SM-1 (Aqueous solubility): much greater aqueous solubility than SM-1 | solubility (Aqueous solubility; [3]): 1940 µg/mL (≈ 4.11 mM) | Caco-2 Permeability (Caco-2 monolayers): Low | Efflux Transporter Substrate (efflux transporter): Yes | IC50 (P-glycoprotein (P-gp)): ~138 µM | IC50 [1]: ~170 µM

CCCO[C@H]1CC[C@H](N(C(=O)Nc2ncc([S+]([O-])CC(=O)O)s2)C2CCCCC2)CC1 (relative stereo) [Sulfoxide-1, {2-[3-Cyclohexyl-3-(trans-4-propoxy-cyclohexyl)-ureido]-thiazol-5-ylsulfinyl}-acetic acid]
solubility (Aqueous solubility; [4]): 30 µg/mL (≈ 0.0636 mM) | solubility (Aqueous solubility; [2]): 2570 µg/mL (≈ 5.45 mM) | aqueous solubility compared with SM-1 (Aqueous solubility): much greater aqueous solubility than SM-1 | solubility (Aqueous solubility; [3]): 2930 µg/mL (≈ 6.21 mM) | Caco-2 Permeability (Caco-2 monolayers): Low | Efflux Transporter Substrate (efflux transporter): Yes | IC50 (P-glycoprotein (P-gp)): ~212 µM | BCRP inhibitory activity, rank among the tested compounds [1]: weakest BCRP inhibitors | IC50 [1]: > 212 µM
